Measured values taken from article PMC5735191, “Computational and biological profile of boronic acids for the detection of bacterial serine- and metallo-β-lactamases” (Scientific Reports, 2017).

Legend:
VIM-2 = VIM-2 (Escherichia coli, UniProt Q5U7L7)
Source text: VIM-2. The VIM-2 metallo-β-lactamase was purified from a 2 L culture of BL21-DE3/pET9-VIM-
2 as previously described3. Briefly, the protein was purified from the culture supernatant,
concentrated by ultrafiltration, and purified using two anion exchange chromatography steps,
followed by a final gel filtration step, as described. β-lactamase activity was monitored using the
The authenticity and purity of the final protein sample was
confirmed by ESI-MS and SDS-PAGE.
Protein purification methods and kinetic profile characterization details: the Table reports the
step-by-step purification procedure for each β-lactamase protein, indicating the β-lactam substrate
used for kinetic profile characterization (kcat, Km and specificity constant evaluation) and the
proper concentration of enzyme used in the assay for each BL class.

NDM-1 = NDM-1 (Klebsiella pneumoniae, UniProt C7C422)
Chain of NDM-1 (C7C422 29-270 limits assumed): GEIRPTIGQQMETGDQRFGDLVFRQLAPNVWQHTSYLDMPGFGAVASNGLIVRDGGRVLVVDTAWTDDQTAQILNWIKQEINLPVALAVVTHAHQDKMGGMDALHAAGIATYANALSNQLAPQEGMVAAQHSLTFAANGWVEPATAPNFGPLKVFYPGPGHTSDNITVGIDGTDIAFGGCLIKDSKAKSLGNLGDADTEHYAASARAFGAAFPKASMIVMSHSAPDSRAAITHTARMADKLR
Procedure: 24h at 37 °C. Cells were recovered by centrifugation (4,500 rpm, 4 °C, 20 min) and resuspended in
200 mL of buffer A (10 mM Hepes, 0.15 M NaCl, pH7.5). The cells were lyzed by sonication
(Sonopuls HD-2200) and the cell debris removed by centrifugation (12,000 rpm, 4 °C, 30 min) in
the presence of Protease Inhibitor Complete (Roche). The clarified sample was loaded onto a 5mL
HisTrap Fast Flow column (GE Healthcare). The protein was eluted with imidazole (350 mM in
buffer A) The active fractions were pooled, concentrated by ultrafiltration (Amicon Ultra 15, MW
cut-off, 10 kDa), desalted (Hi Prep 26/10 Desalting) in buffer B (20mM triethanolamine, 50 µM
ZnSO4, pH 7.2) to remove imidazole. β -lactamase activity was monitored using the hydrolysis rate
The authenticity and purity of the final protein sample was confirmed by

C[C@@H](O)[C@H]1C(=O)N2C(C(=O)O)=C(SCCN=CN)C[C@H]12 [Imipenem, imipenem]
kcat (VIM-2; β-lactam substrate of VIM-2): 8 ± 2 s⁻¹
Km (VIM-2; β-lactam substrate of VIM-2, enzyme 0.043 µM): 11 ± 3 µM
kcat (NDM-1; β-lactam substrate of NDM-1): 520 ± 84 s⁻¹
Km (NDM-1; β-lactam substrate of NDM-1, enzyme 0.021 µM): 58 ± 6 µM
